In one series the target is T1, human SPHK-2 (Homo sapiens, UniProt Q9NRA0).
T1 construct: expressed in transfected cells; host or cells: HEK-293 (cytoplasmic fraction)
T1 sequence (Q9NRA0 1-654): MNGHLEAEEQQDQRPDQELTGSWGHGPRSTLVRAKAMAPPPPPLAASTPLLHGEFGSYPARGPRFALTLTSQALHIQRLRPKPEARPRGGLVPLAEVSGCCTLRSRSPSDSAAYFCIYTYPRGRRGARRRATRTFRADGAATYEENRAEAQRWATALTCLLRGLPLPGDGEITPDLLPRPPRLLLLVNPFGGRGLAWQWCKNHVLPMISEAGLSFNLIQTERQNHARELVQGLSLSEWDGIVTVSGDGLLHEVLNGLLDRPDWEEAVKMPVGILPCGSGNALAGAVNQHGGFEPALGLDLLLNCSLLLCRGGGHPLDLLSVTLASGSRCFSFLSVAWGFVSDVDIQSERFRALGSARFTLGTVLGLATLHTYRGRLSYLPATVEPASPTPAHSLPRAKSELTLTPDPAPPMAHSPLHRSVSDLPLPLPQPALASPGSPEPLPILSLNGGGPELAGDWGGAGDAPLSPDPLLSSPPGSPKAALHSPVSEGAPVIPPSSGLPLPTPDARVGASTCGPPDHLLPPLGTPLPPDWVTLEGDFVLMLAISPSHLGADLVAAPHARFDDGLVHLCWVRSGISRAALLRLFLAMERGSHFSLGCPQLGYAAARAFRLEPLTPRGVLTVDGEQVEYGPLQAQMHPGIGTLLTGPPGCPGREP
Description: Phosphorylation of fluorescent labeled sphingosines by SPHK-2 ([γ-32P]ATP, TLC). It is filed as biochemical. Particulars: for rate of phosphorylation (phosphate conversion rate) relative to sphingosine (=1), SPHK-2: 20 μM substrate, cytoplasmic fraction of HEK-293 cells overexpressing human SPHK-2. The protocol:
(§1) The phosphorylation reactions are performed essentially as follows. The cytoplasmic fraction of recombinant HEK-293 cells overexpressing human SPHK-1 or -2 is incubated at 30° in total volumes of 100 μl with SP derivatives (20 μM; added from stock solutions in DMSO), 1 mM of ATP, and 2 μCi [γ-^32P]ATP in 50 mM Hepes buffer (pH 7.4) containing 15 mM MgCl2, 0.005% Triton X-100, 10 mM KCl , 10 mM NaF and 1.5 mM semicarbazide. Following incubations for different time points up to 2 hours, lipids are extracted and separated by TLC-plates (Merck). TLC is performed on silica plates, using either BuOH/acetic acid/H2O 3:1:1 or CHCl3/MeOH/H2O/NH4OH (28^w/w%) 200:150:29:1 as the mobile phase. In these systems sphingosine and the compound of Example 4 co-migrate. Identity of the metabolites with pyrene-labeled SPP and sphingomyelin (SM) is established by co-migration with commercially available tritium-labeled SPP and SM as standards.
(§2) Radiolabeled SPP derivatives are visualized and quantified using a Molecular Dynamics Storm Phosphorlmager (Sunnyvale, Calif.). The rate of phosphorylation is calculated and is reported for the fluorescent labeled sphingosines as value relative to the rate for sphingosine (for which the rate is 41 and 25 nmol/min/mg with SPHK-1 and -2, respectively).
(§3) The fluorescently labeled sphingosines of examples 1-7 are used as substrates for human recombinant SPHK-1 and SPHK-2 and all of them are converted to phosphorylated derivatives as visualized by the incorporation of radiolabeled phosphate upon incubation with [γ-32P]ATP and the kinases. The rates of phosphorylation (phosphate conversion rate) are determined and summarized in Table A relative to the natural substrate sphingosine (=SP), which has the assumed value of 1.

A further series deals with T2, human SPHK-1 (Homo sapiens, UniProt Q9NYA1).
T2 construct: expressed in transfected cells; host or cells: HEK-293 (cytoplasmic fraction)
T2 sequence (Q9NYA1 whole entry): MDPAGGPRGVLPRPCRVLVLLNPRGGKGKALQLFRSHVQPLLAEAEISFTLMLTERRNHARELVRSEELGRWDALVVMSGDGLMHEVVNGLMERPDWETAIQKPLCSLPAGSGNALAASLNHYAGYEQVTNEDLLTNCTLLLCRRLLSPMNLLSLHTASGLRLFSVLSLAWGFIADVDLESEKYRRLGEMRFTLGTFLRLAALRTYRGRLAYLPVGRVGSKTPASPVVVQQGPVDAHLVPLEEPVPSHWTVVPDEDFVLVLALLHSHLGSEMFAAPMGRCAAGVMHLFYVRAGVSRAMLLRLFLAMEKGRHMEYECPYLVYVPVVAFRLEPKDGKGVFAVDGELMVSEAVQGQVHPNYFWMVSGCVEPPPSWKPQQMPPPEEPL
The series is described as follows: Phosphorylation of fluorescent labeled sphingosines by SPHK-1 ([γ-32P]ATP, TLC). It is filed as biochemical. Particulars: for rate of phosphorylation (phosphate conversion rate) relative to sphingosine (=1), SPHK-1: 20 μM substrate, cytoplasmic fraction of HEK-293 cells overexpressing human SPHK-1; for times (fold) less efficiently converted to the phosphate than SP, SPHK-1: compared to sphingosine (SP); for reduction of phosphorylation efficiency (factor), SPHK-1: compared to compound of example 4. How it is done:
as §1, §2, §3

The subject of series [1] is HUVEC overexpressing SPHK-1 or SPHK-2. Description: Sphingolipid turnover of labeled sphingosines in HUVEC transiently transfected with SPHK-1 and SPHK-2. The format is cell-based, human. Particulars: FIG. 3, transfected cells, TLC. How it is done:
HUVEC as described in Test Example 4 are seeded in 6-well plates at 50% confluency and grown overnight. Grown cells obtained are transfected using Lipofectamine Plus reagent with an empty vector (GFP-vector from Clontech) alone and GFP-tagged expression constructs coding for SPHK-1 and SPHK-2. Transfection is carried out for 20 hours. To the transfected cells obtained a labeled compound of formula I wherein X is (HO)2PO is added at 2 μM and incubated for 0.5 hours, 1 hour and 3 hours, respectively. Lipids are extracted and the extraction residue obtained is subjected to TLC using BuOH/AcOH/H2O 3:1:1 as a solvent system. TLC plates obtained are scanned using CCD camera and density of the lipid products obtained is measured using AlphaImage 2200 (see FIG. 3).

The test system of another series is sphingosine kinase. The series is described as follows: Fluorimetric assay of sphingosine kinase activity. The format is biochemical. The text has this: We have determined that sphingosine kinase in the presence of ATP phosphorylates a compound COMPA (compound of Example 23), which is a fluorescent labeled sphingosine, to obtain a corresponding phosphorylated compound COMPA-P (compound of Example 24) according to the Reaction SCHEME 4 as set out below.
wherein residues are as defined above and R3 is H. such as phosphorylation of a compound of Example […] by a sphingosine kinase to obtain a compound of Example […] in the presence of ATP. COMPA and COMPB are separated by liquid-liquid extraction. Fluorescence as a measure of enzyme activity of a compound of formula COMPA-P in the aqueous phase is quantified. In detail:
Sphingosine kinase is incubated in total volumes of 100 μl with a compound of formula COMPA (20 μM, added from stock solutions in DMSO) and ATP (1 mM) in 50 mM Hepes buffer, pH 7.4, containing 15 mM MgCl2, 0.005% Triton X-100, 10 mM KCl for 30 minutes at 30° and to the mixture obtained 100 μl 1 M potassium phosphate buffer, pH 8.5, followed by 250 μl CHCl3/MeOH 2:1 are added. […]
Fluorescence intensity is measured in a plate reader with excitation at 485 nm and emission at 538 nm. […] From the fluorescence intensity, concentrations of a compound of formula COMPA-P are calculated using appropriate calibration curves in the same solvent system. […]

Series [2] deals with human endothelial cells (HUVEC). The series is described as follows: Uptake, subcellular distribution and metabolism of fluorescent labeled sphingosines in human endothelial cells. It is filed as cell-based. The text has this:
To examine the uptake, subcellular distribution and metabolism (conversion to the phosphate) in human endothelial cells (HUVEC), the pyrene labeled sphingosine of example 4 is used. […] Furthermore, the compound is converted intracellularly into 4 products as shown by thin-layer chromatography.

Here are results for ten compounds from patent publication US20080318255A1, “Fluorescent Labeled Sphingosines” (priority 2003, published 2008).

As to `N[C@@H](CO)[C@H](O)/C=C/CCCOC(=O)CCCCCCCCCc1cc2ccc3cccc4ccc(c1)c2c34` [Example 3], the “rate of phosphorylation (phosphate conversion rate) relative to sphingosine (=1), SPHK-2” value at human SPHK-2 (1 mM ATP, 30°) amounted to 0.065. Further, the “rate of phosphorylation (phosphate conversion rate) relative to sphingosine (=1), SPHK-1” value at human SPHK-1 (1 mM ATP, 30°) stood at 0.024. The “times (fold) less efficiently converted to the phosphate than SP, SPHK-1” value at human SPHK-1 is given as “about 40”.
In the case of `N[C@@H](CO)[C@H](O)/C=C/CCCCCCCCCCNC(=O)c1cc2ccc3cccc4ccc(c1)c2c34` [Example 5], the “rate of phosphorylation (phosphate conversion rate) relative to sphingosine (=1), SPHK-2” value at human SPHK-2 (1 mM ATP, 30°) was 0.59. Moreover, the “reduction of phosphorylation efficiency (factor), SPHK-2” value at human SPHK-2 (compared to compound of example 4) is 3. Also, at human SPHK-1 (1 mM ATP, 30°), the “rate of phosphorylation (phosphate conversion rate) relative to sphingosine (=1), SPHK-1” value was determined as 0.28. On human SPHK-1, the “reduction of phosphorylation efficiency (factor), SPHK-1” value amounted to 2.
Turning to `N[C@@H](CO)[C@H](O)/C=C/CCCOC(=O)CCCCCc1cc2ccc3cccc4ccc(c1)c2c34` [Example 2], the “rate of phosphorylation (phosphate conversion rate) relative to sphingosine (=1), SPHK-2” value at human SPHK-2 (1 mM ATP, 30°) came to 0.83. Moreover, the “rate of phosphorylation (phosphate conversion rate) relative to sphingosine (=1), SPHK-1” value at human SPHK-1 (1 mM ATP, 30°) is on record as 0.078. Moreover, the “improvement of phosphorylation rate by a factor, SPHK-1” value at human SPHK-1 (compared to example 1) turned out to be 2.
As for `CCCCCCCCCCCCC/C=C/[C@@H](O)[C@@H](N)CO` [sphingosine], on human SPHK-2 (20 μM, 1 mM ATP, 30°), the “rate of phosphorylation with SPHK-2” value is listed as 25 nmol/min/mg. Further, at human SPHK-1 (20 μM, 1 mM ATP, 30°), the “rate of phosphorylation with SPHK-1” value is on record as 41 nmol/min/mg.
As for `N[C@@H](CO)[C@H](O)/C=C/CCCCCCCCCCNc1ccc([N+](=O)[O-])c2nonc12` [Example 24], the “phosphorylation in cells overexpressing SPHK-1 versus SPHK-2” value in series [1] is “phosphorylated more efficient by SPHK-2 than by SPHK-1”.
For `N[C@@H](CO)[C@H](O)/C=C/CCCCCCCCCCNS(=O)(=O)c1cc2ccc3cccc4ccc(c1)c2c34` [Example 6], on human SPHK-2, the “phosphorylation by SPHK-2 (in words)” value was “almost as efficiently as SP”. Moreover, on human SPHK-2 (1 mM ATP, 30°), the “rate of phosphorylation (phosphate conversion rate) relative to sphingosine (=1), SPHK-2” value is on record as 0.83. For the same compound, the “rate of phosphorylation (phosphate conversion rate) relative to sphingosine (=1), SPHK-1” value at human SPHK-1 (1 mM ATP, 30°) is 0.051. On human SPHK-1, the “reduction of phosphorylation efficiency (factor), SPHK-1” value is “about 20”.
Turning to `N[C@H](COCCCCCCCCCCCNc1ccc([N+](=O)[O-])c2nonc12)COP(=O)(O)O` [Example 23, Phosphoric acid mono-{(R)-2-amino-3-[11-(7-nitro-benzo[1,2,5]oxadiazol-4-ylamino)-undecyloxy]-propyl}ester], the “phosphorylation by sphingosine kinase in the presence of ATP” value with sphingosine kinase is “phosphorylates”.
On to `N[C@@H](CO)[C@H](O)/C=C/CCCOC(=O)CCCc1cc2ccc3cccc4ccc(c1)c2c34` [Example 1], for which the “rate of phosphorylation (phosphate conversion rate) relative to sphingosine (=1), SPHK-2” value on human SPHK-2 (1 mM ATP, 30°) is on record as 0.14. Besides, on human SPHK-1 (1 mM ATP, 30°), the “rate of phosphorylation (phosphate conversion rate) relative to sphingosine (=1), SPHK-1” value is given as 0.048. Moreover, the “times (fold) less efficiently converted to the phosphate than SP, SPHK-1” value on human SPHK-1 is given as “about 20”.
Consider `CN(C)c1cccc2c(S(=O)(=O)NCCCCCCCCCC/C=C/[C@@H](O)[C@@H](N)CO)cccc12` [Example 7], for which the “rate of phosphorylation (phosphate conversion rate) relative to sphingosine (=1), SPHK-2” value at human SPHK-2 (1 mM ATP, 30°) is reported as 0.026. Besides, the “rate of phosphorylation (phosphate conversion rate) relative to sphingosine (=1), SPHK-1” value at human SPHK-1 (1 mM ATP, 30°) came to 0.063.
`N[C@@H](CO)[C@H](O)/C=C/CCCCCCCCCCOC(=O)c1cc2ccc3cccc4ccc(c1)c2c34` [Example 4]: the “time to incorporation into the cells after addition” value in series [2] was not above 5 min. Also, the subcellular distribution entry in series [2] (after 15-30 minutes of incubation) is “predominantly distribution to the endoplasmic reticulum and to the Golgi apparatus”. Also, in series [2] (thin-layer chromatography), the major metabolite entry was “co-migrates with sphingosine-1-phosphate (SPP)” and the “number of products formed intracellularly” value was 4. At human SPHK-2 (1 mM ATP, 30°), the “rate of phosphorylation (phosphate conversion rate) relative to sphingosine (=1), SPHK-2” value is reported as 1.25. For the same compound, the “phosphorylation by SPHK-1 (in words)” value on human SPHK-1 is “almost equal phosphorylation by SPHK-1 relative to natural SP”. Also, the “rate of phosphorylation (phosphate conversion rate) relative to sphingosine (=1), SPHK-1” value on human SPHK-1 (1 mM ATP, 30°) is recorded as 0.83. In addition, the “degradation of the ester functionality” value on human SPHK-1 (short term in vitro phosphorylation experiments) is recorded as “no degradation is observed”.
